Reference: ChEMBL document CHEMBL1126400, “Synthesis and biological activity of the platelet-activating factor antagonist ()-trans-2-(3-methoxy-4-phenylsulfonylethoxy-5-n-propylsulfonylphenyl)-5-(3,4,5-trimethoxyphenyl)tetrahydrofuran (L-671,284) and its analogs” (Bioorg Med Chem Lett, 1992)

How the values were obtained:
[1] = molecular target: T1, Platelet-activating factor receptor (Homo sapiens, UniProt P25105); assay: In vitro inhibition of [3H]-C18 PAF binding to human platelet membrane Platelet activating factor receptor.; design: concentration or dose not given beside the values; settings: concentration not given here
[2] = molecular target: Platelet-activating factor receptor (Rattus norvegicus) (UniProt P46002); assay: In vivo inhibition of 10 nmole/kg PAF-induced plasma N-acetyl-beta-glucosaminidase (NAGA) after oral administration to rats; type: organism-based; design: concentration or dose not given beside the values
[3] = molecular target: Platelet-activating factor receptor (Rattus norvegicus) (UniProt P46002); assay: In vivo inhibition of 10 nmole/kg PAF-induced hemoconcentration was determined at 1 mg/kg peroral administration; type: functional, organism-based; design: dose 1 mg/kg
[4] = species: Homo sapiens; assay: Inhibitory activity of compound was determined by 3E-7M PAF-induced degranulation of PAFas measured by myeloperoxidase secretion; type: functional
[5] = molecular target: T1, Platelet-activating factor receptor; assay: Compound was evaluated for inhibition of binding of [3H]-C18 PAF to human platelet membrane Platelet activating factor receptor
[6] = molecular target: T1, Platelet-activating factor receptor; assay: Compound was evaluated for inhibitory activity of binding of [3H]-C18 PAF to human platelet membrane Platelet activating factor receptor
[7] = test system: Rattus norvegicus; assay: Drop in blood pressure was observed after 15 minutes of intravenous administration of 0.2 mg/kg compound; type: functional
[8] = test system: Rattus norvegicus; assay: Compound inhibits 10 nmole/kg PAF-induced hemoconcentration and plasma N-acetyl-beta-glucosaminidase increase in male rats; type: functional
[9] = test system: Rattus norvegicus; assay: Compound inhibits 10 nmole/kg PAF-induced hemoconcentration and plasma N-acetyl-beta-glucosaminidase increase in female rats; type: functional
[10] = test system: Rattus norvegicus; assay: In vivo inhibition of 10 nmole/kg PAF-induced hemoconcentration was determined at 1 mg/kg peroral administration in rats; type: functional; settings: route oral
[11] = molecular target: T1, Platelet-activating factor receptor; assay: In vitro inhibition of [3H]-C18 PAF binding to human platelet membrane Platelet activating factor receptor was determined

Chain of Platelet-activating factor receptor (Rattus norvegicus) (P46002 whole entry): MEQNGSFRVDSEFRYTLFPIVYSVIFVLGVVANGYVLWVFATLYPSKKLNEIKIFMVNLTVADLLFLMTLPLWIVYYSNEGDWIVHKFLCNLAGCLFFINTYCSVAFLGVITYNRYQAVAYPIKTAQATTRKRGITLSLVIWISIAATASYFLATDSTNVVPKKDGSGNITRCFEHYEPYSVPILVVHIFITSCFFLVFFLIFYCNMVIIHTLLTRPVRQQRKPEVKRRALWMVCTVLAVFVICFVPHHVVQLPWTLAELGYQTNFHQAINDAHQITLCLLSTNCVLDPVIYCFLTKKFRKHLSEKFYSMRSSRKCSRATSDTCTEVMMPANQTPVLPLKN
T1 sequence (P25105 whole entry): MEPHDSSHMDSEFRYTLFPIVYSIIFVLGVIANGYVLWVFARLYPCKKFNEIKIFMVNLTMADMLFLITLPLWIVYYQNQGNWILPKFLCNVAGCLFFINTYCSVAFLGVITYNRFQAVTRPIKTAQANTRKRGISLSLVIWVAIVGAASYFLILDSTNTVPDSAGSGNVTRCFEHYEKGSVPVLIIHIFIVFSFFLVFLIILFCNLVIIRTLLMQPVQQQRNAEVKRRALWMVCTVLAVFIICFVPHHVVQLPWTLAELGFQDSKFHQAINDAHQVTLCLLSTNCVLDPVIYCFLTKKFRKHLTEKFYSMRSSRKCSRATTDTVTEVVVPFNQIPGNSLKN

Compound	inhibition [1] [%]	inhibition [2] [%]	inhibition [3] [%]	also measured
CCCS(=O)(=O)c1cc(C2CC[C@@H](c3cc(OC)c(OC)c(OC)c3)O2)cc(OC)c1OCCSc1ncc[nH]1 (some centres not stated)	60	13	11	–
CCCS(=O)(=O)c1cc(C2CC[C@@H](c3cc(OC)c(OC)c(OC)c3)O2)cc(OC)c1OCCS(=O)(=O)c1ccccc1 (some centres not stated)	72	94	94	IC50 [4]: 0.78 nM; Ki [5]: 1 nM; IC50 [6]: 1 nM; Decrease in blood pressure [7]: 79 mmHg; ED50 [8]: 0.26 mg/kg; ED50 [9]: 0.22 mg/kg
CCCS(=O)(=O)c1cc(C2CC[C@@H](c3cc(OC)c(OC)c(OC)c3)O2)cc(OC)c1OCCSc1ccccc1O (some centres not stated)	58	–	–	–
CCCS(=O)(=O)c1cc(C2CC[C@@H](c3cc(OC)c(OC)c(OC)c3)O2)cc(OC)c1OCCS(=O)(=O)c1ccc(C#N)cc1 (some centres not stated)	69	1	0	–
CCCS(=O)(=O)c1cc(C2CC[C@@H](c3cc(OC)c(OC)c(OC)c3)O2)cc(OC)c1OCCSc1ccccc1N (some centres not stated)	57	–	–	–
CCCS(=O)(=O)c1cc(C2CC[C@@H](c3cc(OC)c(OC)c(OC)c3)O2)cc(OC)c1OCC[S+]([O-])c1ccc(N)cc1 (some centres not stated)	0	–	–	–
CCCS(=O)(=O)c1cc(C2CC[C@@H](c3cc(OC)c(OC)c(OC)c3)O2)cc(OC)c1OCCSc1ccc(N(C)C)cc1 (some centres not stated)	66	57	66	–
CCCS(=O)(=O)c1cc(C2CC[C@@H](c3cc(OC)c(OC)c(OC)c3)O2)cc(OC)c1OCCSc1ccc(O)cc1 (some centres not stated)	100	75	63	–
CCCS(=O)(=O)c1cc(C2CC[C@@H](c3cc(OC)c(OC)c(OC)c3)O2)cc(OC)c1OCC[S+]([O-])c1ccc(O)cc1 (some centres not stated)	73	44	–	inhibition in vivo at 1 mg/kg [10]: 25%
CCCS(=O)(=O)c1cc(C2CC[C@@H](c3cc(OC)c(OC)c(OC)c3)O2)cc(OC)c1OCCSc1ccc(C(N)=O)cc1 (some centres not stated)	70	32	26	–
CCCS(=O)(=O)c1cc(C2CC[C@@H](c3cc(OC)c(OC)c(OC)c3)O2)cc(OC)c1OCCSc1ccc(C#N)cc1 (some centres not stated)	93	39	33	–
CCCS(=O)(=O)c1cc(C2CC[C@@H](c3cc(OC)c(OC)c(OC)c3)O2)cc(OC)c1OCC[S+]([O-])c1ccc(C#N)cc1 (some centres not stated)	74	0	5	–
CCCS(=O)(=O)c1cc(C2CC[C@@H](c3cc(OC)c(OC)c(OC)c3)O2)cc(OC)c1OCCSc1cccc(N)c1 (some centres not stated)	80	4	–	inhibition in vivo at 1 mg/kg [10]: 7%
CCCS(=O)(=O)c1cc(C2CC[C@@H](c3cc(OC)c(OC)c(OC)c3)O2)cc(OC)c1OCCS(=O)(=O)c1ccncc1 (some centres not stated)	45	5	0	–
CCCS(=O)(=O)c1cc(C2CC[C@@H](c3cc(OC)c(OC)c(OC)c3)O2)cc(OC)c1OCCSc1ccc(N)cc1 (some centres not stated)	60	58	–	inhibition in vivo at 1 mg/kg [10]: 56%
CCCS(=O)(=O)c1cc(C2CC[C@@H](c3cc(OC)c(OC)c(OC)c3)O2)cc(OC)c1OCCSc1ccccc1 (some centres not stated)	93	84	95	–
CCCS(=O)(=O)c1cc(C2CC[C@@H](c3cc(OC)c(OC)c(OC)c3)O2)cc(OC)c1OCCS(=O)(=O)c1ccc(N)cc1 (some centres not stated)	41	–	–	–
CCCS(=O)(=O)c1cc(C2CC[C@@H](c3cc(OC)c(OC)c(OC)c3)O2)cc(OC)c1OCCSc1ccncc1 (some centres not stated)	73	15	15	–
CCCS(=O)(=O)c1cc(C2CC[C@@H](c3cc(OC)c(OC)c(OC)c3)O2)cc(OC)c1OCCS(=O)(=O)c1ccc(O)cc1 (some centres not stated)	88	13	–	inhibition in vivo at 1 mg/kg [10]: 7%
CCCS(=O)(=O)c1cc(C2CC[C@@H](c3cc(OC)c(OC)c(OC)c3)O2)cc(OC)c1OCCSc1cccc(O)c1 (some centres not stated)	61	29	27	–
CCCOc1c(OC)cc([C@H]2CC[C@H](c3cc(OC)c(OC)c(OC)c3)O2)cc1S(C)(=O)=O (single isomer, unassigned)	–	–	–	Ki [11]: 14.3 nM
CCCS(=O)(=O)c1cc(C2CC[C@@H](c3cc(OC)c(OC)c(OC)c3)O2)cc(OC)c1OCCSc1ccc(C(=O)O)cc1 (some centres not stated)	38	23	11	–
